Assay results as given in the supplement of paper PMC10627819.

Legend:
[1] = system: B. subtilis 168; experiment: Bliss interaction score (quartile over a dose matrix) (fitness difference); higher = more antagonism (negative = synergy)
Outline: (§1)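 Each OD595 reading at entry into stationary phase was scaled to the robust mean of the untreated wells on its plate, with a ceiling of 1. These ratios define fitness, and single-drug fitness was inferred from combinations. The Bliss score compares observed fitness with the product-based expectation and is reported as quartiles across all replicate types, technical, biological and donor/recipient.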

[2] = system: S. aureus DSM 20231; experiment: as above
Outline: as §1

[3] = system: S. aureus Newman; experiment: as above
Outline: as §1

[4] = system: S. pneumoniae D39V; experiment: as above
Outline: as §1

[5] = system: B. subtilis 168; experiment: fitness (endpoint OD595 vs no drug) (fraction); higher = more growth
Outline: (§2)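 Plates with 384 wells were inoculated at OD595 0.01 using 30 µl of TSB, LB Lennox or CY, or 55 µl for S. pneumoniae. Incubation was at 37 °C, with OD595 measured every 30 min for 14 h. Fitness is the stationary-phase transition optical density over the robust mean of no-drug control wells, after first-reading background subtraction; it is capped at 1.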

[6] = system: S. aureus Newman; experiment: as above
Outline: as §2

[7] = system: S. pneumoniae D39V; experiment: as above
Outline: as §2
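Wherever Bliss interaction score (quartile over a dose matrix) is given: first quartile when negative (synergy) and third quartile when positive (antagonism).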

COc1cccc2c1C(=O)c1c(O)c3c(c(O)c1C2=O)C[C@@](O)(C(=O)CO)C[C@@H]3O[C@H]1C[C@H](N)[C@H](O)[C@H](C)O1 [Doxorubicin] + CC(C1CCC(C(O1)OC2C(CC(C(C2O)OC3C(C(C(CO3)(C)O)NC)O)N)N)N)NC [Gentamicin]
main component drawn
Conditions | Bliss interaction score
[1] | -0.258
[2] | 0.037
[3] | -0.0672
[4] | 0.0449

main component drawn
Conditions | fitness
[5], first compound 0.625 µg/mL, partner 0.0625 µg/mL | 0.905
[5], first compound 0.625 µg/mL, partner 0.25 µg/mL | 0.079
[5], first compound 1.25 µg/mL, partner 0.0625 µg/mL | 0.804
[5], first compound 1.25 µg/mL, partner 0.25 µg/mL | 0.086
[5], first compound 2.5 µg/mL, partner 0.25 µg/mL | 0.0548
[6], first compound 0.625 µg/mL, partner 0.375 µg/mL | 0.753
[6], first compound 0.625 µg/mL, partner 0.5 µg/mL | 0.841
[6], first compound 0.625 µg/mL, partner 0.75 µg/mL | 0.778
[6], first compound 0.625 µg/mL, partner 1 µg/mL | 0.937
[6], first compound 0.625 µg/mL, partner 1.5 µg/mL | 0.777
[6], first compound 0.625 µg/mL, partner 2 µg/mL | 0.875
[6], first compound 1.25 µg/mL, partner 0.375 µg/mL | 0.794
[6], first compound 1.25 µg/mL, partner 0.5 µg/mL | 0.783
[6], first compound 1.25 µg/mL, partner 0.75 µg/mL | 0.784
[6], first compound 1.25 µg/mL, partner 1 µg/mL | 0.826
[6], first compound 1.25 µg/mL, partner 1.5 µg/mL | 0.793
[6], first compound 1.25 µg/mL, partner 2 µg/mL | 0.887
[6], first compound 2.5 µg/mL, partner 0.375 µg/mL | 0.774
[6], first compound 2.5 µg/mL, partner 0.5 µg/mL | 0.734
[6], first compound 2.5 µg/mL, partner 0.75 µg/mL | 0.788
[6], first compound 2.5 µg/mL, partner 1 µg/mL | 0.779
[6], first compound 2.5 µg/mL, partner 1.5 µg/mL | 0.796
[6], first compound 2.5 µg/mL, partner 2 µg/mL | 0.809
[7], first compound 0.25 µg/mL, partner 2 µg/mL | 0.919
[7], first compound 0.25 µg/mL, partner 4 µg/mL | 0.919
[7], first compound 0.25 µg/mL, partner 8 µg/mL | 0.882
[7], first compound 0.5 µg/mL, partner 2 µg/mL | 0.937
[7], first compound 0.5 µg/mL, partner 4 µg/mL | 0.943
[7], first compound 0.5 µg/mL, partner 8 µg/mL | 0.848
[7], first compound 1 µg/mL, partner 2 µg/mL | 0.806
[7], first compound 1 µg/mL, partner 4 µg/mL | 0.822
[7], first compound 1 µg/mL, partner 8 µg/mL | 0.76

O=C(O)c1cn(C2CC2)c2cc(N3CCNCC3)c(F)cc2c1=O [Ciprofloxacin] + COc1ccc(C[C@H](N)C(=O)N[C@H]2[C@@H](O)[C@H](n3cnc4c(N(C)C)ncnc43)O[C@@H]2CO)cc1 [Puromycin]
Conditions | Bliss interaction score
[1] | -0.118
[2] | -0.135
[3] | -0.132
[4] | -0.0901

Conditions | fitness
[5], first compound 0.0098 µg/mL, partner 0.39 µg/mL | 0.918
[5], first compound 0.0098 µg/mL, partner 0.78 µg/mL | 0.956
[5], first compound 0.0098 µg/mL, partner 1.56 µg/mL | 0.842
[5], first compound 0.0195 µg/mL, partner 0.39 µg/mL | 0.721
[5], first compound 0.0195 µg/mL, partner 0.78 µg/mL | 0.721
[5], first compound 0.0195 µg/mL, partner 1.56 µg/mL | 0.683
[5], first compound 0.039 µg/mL, partner 0.39 µg/mL | 0.0586
[5], first compound 0.039 µg/mL, partner 0.78 µg/mL | 0.0556
[5], first compound 0.039 µg/mL, partner 1.56 µg/mL | 0.0555
[6], first compound 0.0375 µg/mL, partner 0.39 µg/mL | 0.679
[6], first compound 0.0375 µg/mL, partner 0.78 µg/mL | 0.635
[6], first compound 0.0375 µg/mL, partner 1.56 µg/mL | 0.651
[6], first compound 0.075 µg/mL, partner 0.39 µg/mL | 0.577
[6], first compound 0.075 µg/mL, partner 0.78 µg/mL | 0.522
[6], first compound 0.075 µg/mL, partner 1.56 µg/mL | 0.422
[6], first compound 0.15 µg/mL, partner 0.39 µg/mL | 0.0435
[6], first compound 0.15 µg/mL, partner 0.78 µg/mL | 0.0274
[6], first compound 0.15 µg/mL, partner 1.56 µg/mL | 0.0296
[7], first compound 0.125 µg/mL, partner 1 µg/mL | 0.944
[7], first compound 0.125 µg/mL, partner 2 µg/mL | 0.92
[7], first compound 0.125 µg/mL, partner 4 µg/mL | 0.492
[7], first compound 0.25 µg/mL, partner 1 µg/mL | 0.808
[7], first compound 0.25 µg/mL, partner 2 µg/mL | 0.846
[7], first compound 0.25 µg/mL, partner 4 µg/mL | 0.51
[7], first compound 0.5 µg/mL, partner 4 µg/mL | 0.347

O=C(O)c1cn(C2CC2)c2cc(N3CCNCC3)c(F)cc2c1=O [Ciprofloxacin] + COc1c(N2C[C@@H]3CCCN[C@@H]3C2)c(F)cc2c(=O)c(C(=O)O)cn(C3CC3)c12 [Moxifloxacin]
Conditions | Bliss interaction score
[1] | 0.026
[2] | -0.117
[3] | -0.2
[4] | -0.0855

Conditions | fitness
[5], first compound 0.0098 µg/mL, partner 0.0625 µg/mL | 0.051
[5], first compound 0.0098 µg/mL, partner 0.125 µg/mL | 0.055
[5], first compound 0.0098 µg/mL, partner 2 µg/mL | 0.0402
[5], first compound 0.0098 µg/mL, partner 4 µg/mL | 0.0314
[5], first compound 0.0098 µg/mL, partner 8 µg/mL | 0.0305
[5], first compound 0.0195 µg/mL, partner 0.0312 µg/mL | 0.0426
[5], first compound 0.0195 µg/mL, partner 0.0625 µg/mL | 0.0567
[5], first compound 0.0195 µg/mL, partner 0.125 µg/mL | 0.0402
[5], first compound 0.0195 µg/mL, partner 2 µg/mL | 0.0358
[5], first compound 0.0195 µg/mL, partner 4 µg/mL | 0.027
[5], first compound 0.0195 µg/mL, partner 8 µg/mL | 0.0243
[5], first compound 0.039 µg/mL, partner 0.0312 µg/mL | 0.0379
[5], first compound 0.039 µg/mL, partner 0.0625 µg/mL | 0.0522
[5], first compound 0.039 µg/mL, partner 0.125 µg/mL | 0.0269
[5], first compound 0.039 µg/mL, partner 2 µg/mL | 0.038
[5], first compound 0.039 µg/mL, partner 4 µg/mL | 0.0353
[5], first compound 0.039 µg/mL, partner 8 µg/mL | 0.0328
[6], first compound 0.0375 µg/mL, partner 0.0075 µg/mL | 0.579
[6], first compound 0.0375 µg/mL, partner 0.015 µg/mL | 0.414
[6], first compound 0.0375 µg/mL, partner 0.03 µg/mL | 0.0123
[6], first compound 0.075 µg/mL, partner 0.0075 µg/mL | 0.322
[6], first compound 0.075 µg/mL, partner 0.015 µg/mL | 0.0421
[6], first compound 0.075 µg/mL, partner 0.03 µg/mL | 0.0176
[6], first compound 0.15 µg/mL, partner 0.0075 µg/mL | 0.0344
[6], first compound 0.15 µg/mL, partner 0.015 µg/mL | 0.03
[6], first compound 0.15 µg/mL, partner 0.03 µg/mL | 0.0119
[7], first compound 0.125 µg/mL, partner 0.005 µg/mL | 0.944
[7], first compound 0.125 µg/mL, partner 0.01 µg/mL | 0.944
[7], first compound 0.125 µg/mL, partner 0.02 µg/mL | 0.882
[7], first compound 0.125 µg/mL, partner 0.0312 µg/mL | 0.0716
[7], first compound 0.125 µg/mL, partner 0.0625 µg/mL | 0.0294
[7], first compound 0.125 µg/mL, partner 0.125 µg/mL | 0.0127
[7], first compound 0.25 µg/mL, partner 0.005 µg/mL | 0.887
[7], first compound 0.25 µg/mL, partner 0.01 µg/mL | 0.892
[7], first compound 0.25 µg/mL, partner 0.02 µg/mL | 0.812
[7], first compound 0.5 µg/mL, partner 0.005 µg/mL | 0.686
[7], first compound 0.5 µg/mL, partner 0.01 µg/mL | 0.692
[7], first compound 0.5 µg/mL, partner 0.02 µg/mL | 0.628
[7], first compound 0.5 µg/mL, partner 0.0312 µg/mL | 0.0441
[7], first compound 0.5 µg/mL, partner 0.0625 µg/mL | 0.0537
[7], first compound 0.5 µg/mL, partner 0.125 µg/mL | 0.0249

[7], first compound 0.25 µg/mL, one replicate
Conditions | fitness
partner 0.0312 µg/mL | 0.0113
partner 0.0625 µg/mL | 0.0007
partner 0.125 µg/mL | 0
